Test results as given in patent publication US6335157B1, “Method based on localization of Hsp90 to the centrosome” (The European Molecular Biology Laboratory, priority 1999, dated 2002).

System: Hela and human epithelial kidney 293 cells
Experiment: Geldanamycin treatment of cells, immunofluorescence staining with anti-α-tubulin, anti-γ-tubulin and anti-Hsp90 antibodies
Format: cell-based
Settings: 1 μg/ml geldanamycin
Experimental: Geldanamycin specifically interferes with the function of Hsp90 by binding to the ATP binding site of Hsp90 (Prodromou et al., 1997, Cell 90:65-75; Stebbins et al., 1997, Cell 89:239-250). Hela and human epithelial kidney 293 cells were treated with 1 μg/ml geldanamycin for times ranging from […] (15 minutes, 30 minutes, 1 hour, 5 hours, 15 hours, 20 hours and 30 hours) and were stained with anti-α-tubulin, anti-γ-tubulin and anti-Hsp90 antibodies. […] However, aberrant mitotic spindles were detected from as early as 1 hour of treatment with geldanamycin. More than 50% of the mitotic figures produced in the presence of the drug after 20 hours of treatment contained aberrant mitotic figures in which the centrosomes, the spindles, and the distribution of chromatin were severely disrupted. […] The spindles of these cells were rather asymmetric, with unequal amounts of microtubules in each hemi-spindle and spindle poles very often detached from the centrosome. The aster microtubules which are organized around the centrosome were also abnormal in number and distribution. […] About 50% of the cells contained misaligned chromosomes. Thus, while the centrosome and the cytoskeleton of interphase cells were insensitive to geldanamycin, mitotic centrosomes cannot be properly formed in the presence of geldanamycin. […] Therefore, notwithstanding the possible contribution of other non-centrosomal functions of Hsp90 to some of these phenotypes, it is clear that the inhibition of the function of Hsp90 results in abnormalities in centrosome structure.

SMILES: COC1=C2C[C@@H](C)C[C@H](OC)[C@H](O)[C@@H](C)/C=C(\C)[C@H](OC(N)=O)[C@@H](OC)/C=C\C=C(/C)C(=O)NC(=CC1=O)C2=O [geldanamycin]
- cells containing misaligned chromosomes: About 50%
- earliest treatment time at which aberrant mitotic spindles were detected: 1 h
- mitotic figures that were aberrant (centrosomes, spindles and distribution of chromatin severely disrupted) (after 20 hours of treatment): More than 50%
